# Data taken from US9765054B2, “Histone deacetylase inhibitors and compositions and methods of use thereof” (CHDI Foundation, Inc., priority 2011, dated 2017).
# Tests used:
# [1] = target: human catalytic domain HDAC4 protein (Homo sapiens, UniProt P56524, A743G/DEL730-739/DEL742-742); experiment: Inhibition of HDAC4 catalytic domain enzymatic activity, Boc-Lys(Tfa)-AMC substrate, fluorescence; conditions: Class IIa selective substrate Boc-Lys(Tfa)-AMC, read-out: Biochemical HDAC-4 IC50;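 also: trypsin releases AMC from deacetylated substrate, fluorescence tracks enzyme activity, 15 min reaction at 37 °C, 100% activity defined by DMSO-only control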
# [2] = test system: cellular histone deacetylase enzymatic activity in Jurkat E6-1 cells; experiment: Inhibition of cellular HDAC activity, Boc-Lys(Tfa)-AMC substrate, in Jurkat E6-1 cells; assay type: cell-based; conditions: Homo sapiens, Class IIa selective substrate Boc-Lys(Tfa)-AMC
# Description: The potency of Class IIa Histone Deacetylase (HDAC) inhibitors is quantified by measuring the cellular histone deacetylase enzymatic activity using the Class IIa selective substrate, Boc-Lys(Tfa)-AMC. After penetration in Jurkat E6-1 cells, the substrate is deacetylated to Boc-Lys-AMC. After cell lysis and cleavage by trypsin, the fluorophore AMC is released from the deacetylated substrate only. The fluoresence of the sample is directly related to the histone deacetylase activity in the sample.
# Jurkat E6.1 Cell Culture and Plating.
# Jurkat E6.1 cells are cultured according to standard cell culture protocols in Jurkat E6.1 Growth Media (RPMI without phenol red, 10% FBS, 10 mM HEPES, and 1 mM Sodium Pyruvate). Jurkat E6.1 cells are counted using a Coulter Counter and resuspended in Jurkat E6.1 growth media at a concentration of 75,000 cells/35 μl. 35 μl or 75,000 cells is seeded into Greiner microtitre assay plates. The plates are then incubated at 37° C. and 5% CO2 while other assay components are being prepared.
# Serially Dilute HDAC Inhibitor Compounds.
# Serial dilutions of the HDAC inhibitors and control reference compound (1-(5-(3-((4-(1,3,4-oxadiazol-2-yl)phenoxy)methyl)-1,2,4-oxadiazol-5-yl)thiophen-2-yl)-2,2,2-trifluoroethanone) are made by first resuspending the lyophilized compound to a final concentration of 10 mM in 100% DMSO. Stocks of 70 μl aliquots of the 10 mM compound in DMSO are prepared and stored at −20° C. From one stock aliquot of each compound to be tested and the reference compound, a 16-point serial dilution is prepared according to Table 7 using a 125 μl 16-channel Matrix multi-channel pipette.
# 2 μl (200×) of each diluted solution and each control (full activity: 100% DMSO alone or full inhibition 1 mM) is stamped into V-bottom polypropylene 384-well compound plates using either the Bravo, Janus, or […] 16-channel Matrix multi-channel pipette. Each well with the 200× compound solution is diluted 1:20 by the addition of 38 μl Jurkat assay buffer+DMSO (9.5% DMSO, RPMI without phenol red, 0.09% FBS, 9 mM Hepes, and 0.9 mM Sodium Pyruvate equilibrated to room temperature)
# Prepare 5× (500 μM) Boc-Lys(Tfa)-AMC Substrate.
# 5× (500 μM) substrate is prepared just prior to the addition to the assay. The 5× substrate is prepared by diluting a 100 mM Boc-Lys(Tfa)-AMC in DMSO solution 1:200 by adding it drop-wise to Jurkat assay medium (RPMI without phenol red, 0.1% FBS, 10 mM Hepes, and 1 mM Sodium Pyruvate equilibrated to 37° C.) while vortexing at slow speed to prevent precipitation.
# 10 ml of 3× lysis buffer is prepared with 8.8 ml of 3× stock lysis buffer (50 mM Tris-HCl, pH 8.0, 137 mM NaCl, 2.7 mM KCl, 1 mM MgCl2, 1% Nonidet P40 Substitute equilibrated to room temperature) and 1.2 ml of 3 mg/ml Trypsin equilibrated to room temperature.
# 5 μl of each solution of 1:20 diluted compound from above is transferred to the Greiner microtitre assay plates with 75,000 cells/well using the Bravo. Cells are then incubated for 2 hours at 37° C. and 5% CO2. The assay is then started by adding 10 μl of 5× (500 μM) substrate to the assay plate using either the Bravo or 16-channel Matrix multi-channel pipette. The cells are then incubated for 3 hours at 37° C. and 5% CO2. Next, 25 μl of 3× lysis buffer is added to each well using either the 125 μl 16 channel pipette or the Bravo. The assay plate is then incubated overnight (15-16 hours) at 37° C. and 5% CO2. The following day, the plates are shaken on an orbital shaker for 1 minute at 900 rpm. Finally the top read fluorescence (Excitation: 355 nm, Emission: 460 nm) is measured using PerkinElmer EnVision.
IC50 [1] [µM],IC50 [2] [µM],Compound
0.02,0.22,"CC(C)c1nc2ccc([C@H]3[C@H](C(=O)NO)[C@@H]3c3ccccc3)cc2o1 [Compound 39, (1R,2R,3R)—N-hydroxy-2-(2-isopropylbenzo[d]oxazol-6-yl)-3-phenylcyclopropanecarboxamide]"
0.99,8.85,"O=C(NO)[C@@H]1[C@H](c2ccccc2)[C@H]1c1ccc(-c2cccc(OCc3ccccc3)c2)cc1 [Compound 54a, (1R,2R,3R)-2-(3′-(Benzyloxy)-[1,1′-biphenyl]-4-yl)-N-hydroxy-3-phenylcyclopropanecarboxamide]"
0.26,1.43,"CN1CCOc2cc(-c3ccc([C@H]4[C@H](C(=O)NO)[C@@H]4c4ccccc4)cc3)ccc21 [Compound 54c, (1R,2R,3R)—N-hydroxy-2-(4-(4-methyl-3,4-dihydro-2H-benzo[b][1,4]oxazin-7-yl)phenyl)-3-phenylcyclopropanecarboxamide]"
0.05,0.47,"Cc1ncc(-c2ccc([C@H]3[C@H](C(=O)NO)[C@@H]3c3ccccc3F)cc2)o1 [Compound 75b, (1S,2R,3R)-2-(2-Fluorophenyl)-N-hydroxy-3-(4-(2-methyloxazol-5-yl)phenyl)cyclopropanecarboxamide]"
0.16,0.78,"Cc1cnc(-c2cccc([C@H]3[C@H](C(=O)NO)[C@@H]3c3ccccc3)c2)nc1 [Compound 77, (1R,2R,3R)—N-Hydroxy-2-(3-(5-methylpyrimidin-2-yl)phenyl)-3-phenylcyclopropanecarboxamide]"
0.09,0.65,"Cc1ccn(-c2ccc([C@H]3[C@H](C(=O)NO)[C@@H]3c3ccccc3)cc2)n1 [Compound 79, (1R,2R,3R)—N-Hydroxy-2-(4-(3-methyl-1H-pyrazol-1-yl)phenyl)-3-phenylcyclopropanecarboxamide]"
0.12,0.75,"CC(C)N1CCN(c2ccc([C@H]3[C@H](C(=O)NO)[C@@H]3c3ccccc3F)cn2)CC1 [Compound 83, (1S,2R,3R)-2-(2-Fluorophenyl)-N-hydroxy-3-(6-(4-isopropylpiperazin-1-yl)pyridin-3-yl)cyclopropanecarboxamide]"
0.2,1.48,"O=C(NO)[C@H]1[C@H](c2cc(C3CC3)nc(C3CC3)c2)[C@H]1c1ccccc1F [Compound 88, (1S,2R,3R)-2-(2,6-Dicyclopropylpyridin-4-yl)-3-(2-fluorophenyl)-N-hydroxycyclopropanecarboxamide]"
0.02,0.42,"O=C(NO)[C@@H]1[C@H](c2cccc(F)c2)[C@H]1c1ccnc(C2CC2)c1 [Compound 100b, (1S,2R,3R)-2-(2-Cyclopropylpyridin-4-yl)-3-(3-fluorophenyl)-N-hydroxycyclopropanecarboxamide]"
0.04,0.44,"Cc1cnc(-c2ccc([C@H]3[C@H](C(=O)NO)[C@@H]3c3ccccc3)cc2)s1 [Compound 102, (1R,2R,3R)—N-hydroxy-2-(4-(5-methylthiazol-2-yl)phenyl)-3-phenylcyclopropanecarboxamide]"
0.17,1.41,"O=C(NO)[C@H]1[C@H](c2ccc(NCC(F)(F)F)nc2)[C@H]1c1ccccc1F [Compound 106, (1S,2R,3R)-2-(2-Fluorophenyl)-N-hydroxy-3-(6-((2,2,2-trifluoroethyl)amino)pyridin-3-yl)cyclopropanecarboxamide]"
0.55,6.66,"O=C(NO)[C@@H]1[C@H](c2ccccc2)[C@H]1c1cnc2ccccn12 [Compound 115, (1R,2R,3R)—N-hydroxy-2-(imidazo[1,2-a]pyridin-3-yl)-3-phenylcyclopropanecarboxamide]"

# Continued, molecule first:
Compound,IC50 [1] [µM],IC50 [2] [µM]
"O=C(NO)[C@@H]1[C@H](c2ccccc2)[C@H]1c1ccc(-n2cccn2)cc1 (racemic) [Compound 65, (1R*,2R*,3R*)-2-(4-(1H-pyrazol-1-yl)phenyl)-N-hydroxy-3-phenylcyclopropanecarboxamide]",0.09,0.97
"O=C(NO)[C@@H]1[C@H](c2ccccc2)[C@H]1c1cccc(N2CCN3CCCC3C2)c1 (relative stereo) [Compound 56f, (1R*,2R*,3R*)-2-(3-(Hexahydropyrrolo[1,2-a]pyrazin-2(1H)-yl)phenyl)-N-hydroxy-3-phenylcyclopropanecarboxamide]",0.63,1.85
"O=C(NO)[C@H]1[C@H](c2cc(Cl)c3c(c2)OCCO3)[C@H]1c1ccccc1F [Compound 25f, (1S,2R,3R)-2-(8-Chloro-2,3-dihydrobenzo[b][1,4]dioxin-6-yl)-3-(2-fluorophenyl)-N-hydroxycyclopropanecarboxamide]",0.03,0.24
"O=C(NO)[C@H]1[C@H](c2ccnc(C3CC3)c2)[C@H]1c1ccccc1F [Compound 28c, (1S,2R,3R)-2-(2-Cyclopropylpyridin-4-yl)-3-(2-fluorophenyl)-N-hydroxycyclopropanecarboxamide]",0.04,0.53
"O=C(NO)[C@@H]1[C@H](c2ccc(F)cc2)[C@H]1c1ccnc(C2CC2)c1 [Compound 28d, (1R,2R,3R)-2-(2-Cyclopropylpyridin-4-yl)-3-(4-fluorophenyl)-N-hydroxycyclopropanecarboxamide]",0.12,0.79
"O=C(NO)[C@@H]1[C@H](c2ccccc2)[C@H]1c1ccc2c(c1)OC(F)(F)O2 [Compound 28e, (1R,2R,3R)-2-(2,2-Difluorobenzo[d][1,3]dioxol-5-yl)-N-hydroxy-3-phenylcyclopropanecarboxamide]",0.12,2.03
"O=C(NO)[C@@H]1[C@H](c2ccccc2)[C@H]1c1ccc(-c2ncc(C(F)(F)F)cn2)cc1 [Compound 50e, (1R,2R,3R)-2-(4-(5-Trifluoromethylpyrimidin-2-yl)phenyl)-N-hydroxy-3-phenylcyclopropanecarboxamide]",0.18,0.69
"O=C(NO)[C@@H]1[C@H](c2ccccc2)[C@H]1c1cccc(N2CCCn3nccc32)c1 [Compound 56h, (1R,2R,3R)-2-(3-(6,7-Dihydropyrazolo[1,5-a]pyrimidin-4(5H)-yl)phenyl)-N-hydroxy-3-phenylcyclopropanecarboxamide]",0.17,0.77
"O=C(NO)[C@@H]1[C@H](c2ccccc2)[C@H]1c1ccc(C2=CCN(Cc3ccccc3)CC2)cc1 [Compound 71, (1R,2R,3R)-2-(4-(1-Benzyl-1,2,3,6-tetrahydropyridin-4-yl)phenyl)-N-hydroxy-3-phenylcyclopropanecarboxamide]",0.35,0.75
"O=C(NO)[C@@H]1[C@H](c2ccccc2)[C@H]1c1cnn(-c2ccc(C(F)(F)F)cn2)c1 [Compound 92b, (1R,2R,3R)—N-Hydroxy-2-phenyl-3-(1-(5-(trifluoromethyl)pyridin-2-yl)-1H-pyrazol-4-yl)cyclopropanecarboxamide]",0.18,1.17
"O=C(NO)[C@@H]1[C@H](c2ccccc2)[C@H]1c1ccn2cc(C(F)(F)F)nc2c1 [Compound 109, (1R,2R,3R)—N-Hydroxy-2-phenyl-3-(2-(trifluoromethyl)imidazo[1,2-a]pyridin-7-yl)cyclopropanecarboxamide]",0.23,2.5
